From PubChem BioAssay (NCI)
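Growth conditions: 96-well plates. Treatment: test compound, 48 hours, 5 concentrations. Analysis: linear interpolation between bracketing concentrations; unreached endpoints set to highest concentration. The concentration for full growth arrest is given as TGI.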 Where a SMILES comes first, the peptide text is derived from it. The star is where a group is joined. Boc = CC(C)(C)OC(=O)*; OtBu = CC(C)(C)O*

Legend:
Assay in all cases: growth of human tumour cells (NCI), 48 h
SK-MEL-28 melanoma = test system: SK-MEL-28 melanoma
UO-31 renal = test system: UO-31 renal
CCRF-CEM leukemia = test system: CCRF-CEM leukemia
NCI/ADR-RES ovarian = test system: NCI/ADR-RES ovarian
HCT-15 colon = test system: HCT-15 colon
786-0 renal = test system: 786-0 renal
OVCAR-3 ovarian = test system: OVCAR-3 ovarian
SNB-19 CNS = test system: SNB-19 CNS
HT29 colon = test system: HT29 colon
SR leukemia = test system: SR leukemia

Structure (SMILES)	TGI (SK-MEL-28 melanoma)	TGI (UO-31 renal)	TGI (CCRF-CEM leukemia)	TGI (NCI/ADR-RES ovarian)	TGI (HCT-15 colon)	TGI (786-0 renal)	TGI (OVCAR-3 ovarian)	TGI (SNB-19 CNS)	TGI (HT29 colon)	TGI (SR leukemia)
CN(C)CCCCN1c2ccccc2Sc2ccc(N=[N+]=[N-])cc21	3.6 µM	19 µM	8.39 µM	23.3 µM	12.8 µM	23.6 µM	20 µM	23.5 µM	5.22 µM	
CC(=O)OC(C(=O)NNC(=O)OC(C)(C)C)c1ccccc1 (configuration not stated)	> 100 µM	> 100 µM		> 100 µM	> 100 µM	> 100 µM	> 100 µM	> 100 µM	> 100 µM	> 100 µM
N#CC(C#N)=CNC(=S)Nc1ccc(S(=O)(=O)Nc2nccs2)cc1	> 100 µM	> 100 µM		> 100 µM	> 100 µM	> 100 µM	> 100 µM	> 100 µM	> 100 µM	
CC(C)C1CC(CO)(CNc2nc(N)nc(Cl)c2C=O)C1 (configuration not stated)	3.62 µM	13 µM	6.36 µM	23.8 µM	32.1 µM	> 100 µM	8.77 µM	17.1 µM	6.42 µM	
CC(=O)OCCn1c(Cc2ccc(Cl)cc2)nn(C(C)=O)c1=O	> 100 µM	> 100 µM	> 100 µM	> 100 µM	> 100 µM	> 100 µM	> 100 µM	> 100 µM	> 100 µM	
O=c1oc2cc(O)ccc2c(O)c1C(c1ccc(/C=C/c2ccccc2)cc1)c1c(O)c2ccc(O)cc2oc1=O	60.5 µM	> 100 µM	> 100 µM	> 100 µM	> 100 µM	> 100 µM	> 100 µM	> 100 µM	> 100 µM	
CC(=O)Nc1ccc2c3c(cc(O)c2c1)N(C(=O)CCCCCCC(=O)Nc1ccc2c4c(cc(O)c2c1)N(C(=O)OC(C)(C)C)CC4CCl)CC3CCl (configuration not stated)		3.35 µM	0.0259 µM	> 72 µM	> 38.5 µM	5.55 µM	0.263 µM			0.0243 µM
COc1nc2c(c(=O)[nH]1)N=C(c1ccc([N+](=O)[O-])cc1)CC(c1ccccc1)N2 (configuration not stated)	> 100 µM	> 100 µM	> 100 µM	> 100 µM		> 100 µM	> 100 µM	> 100 µM	> 100 µM	> 100 µM
CC(C)(C)OC(=O)CC(NC(=O)OC(C)(C)C)C(=O)NC(Cc1ccccc1)C(N)=O (configuration not stated) (Boc-Asp(OtBu)-Phe-NH2; configuration not given here)	> 100 µM	> 100 µM	> 100 µM	> 100 µM	> 100 µM	> 100 µM	> 100 µM	> 100 µM	> 100 µM	
O=C(O)OC12CCCCCC1C(=O)C1CCCCC12 (configuration not stated)	> 100 µM	> 100 µM	> 100 µM		> 100 µM	> 100 µM		> 100 µM	> 100 µM	> 100 µM
C/C(=C\COP(=O)(O)CP(=O)(O)O)CC/C=C(\C)CNc1ccccc1	> 100 µM	> 100 µM	> 100 µM	> 100 µM	> 100 µM	> 100 µM	> 100 µM	> 100 µM	> 100 µM	
CSC(SC)=C1Sc2cccc(Cl)c2S1	> 100 µM	> 100 µM	> 100 µM		> 100 µM	> 100 µM		> 100 µM	> 100 µM	
Nc1cc2c(C3OC(CO)C(O)C3O)[nH]nc2c(=S)[nH]1 (configuration not stated)	> 100 µM	> 100 µM	> 100 µM		> 100 µM	> 100 µM		> 100 µM	> 100 µM	> 100 µM
COc1ccc(C2OC2C(=O)C23CC4CC(CC(C4)C2)C3)cc1 (configuration not stated)	> 100 µM	> 100 µM	> 100 µM	> 100 µM	> 100 µM	> 100 µM	> 100 µM	> 100 µM	> 100 µM	
CCCCc1c2c([n+]([O-])c3c1CCCC3)CCCC2	> 100 µM	> 100 µM	> 100 µM		> 100 µM	> 100 µM	> 100 µM	> 100 µM	> 100 µM	> 100 µM
O=c1cc(O)c1=O	> 100 µM	> 100 µM	> 100 µM		> 100 µM		> 100 µM	> 100 µM	> 100 µM	> 100 µM
CCOC(=O)c1c2ccccc2n2c(=O)n(-c3ccccc3)nnc12	> 100 µM	> 100 µM	> 69.5 µM	> 100 µM	> 100 µM	> 100 µM	> 100 µM	> 100 µM		> 25.1 µM
COc1ccc(CC(COS(=O)(=O)c2ccc(C)cc2)NS(=O)(=O)c2ccc(C)cc2)cc1 (configuration not stated)	35.2 µM	40.2 µM		> 52.7 µM	41.1 µM	53.1 µM	27.8 µM	32.6 µM	> 50.9 µM	

Structure (SMILES)	TGI (SK-MEL-28 melanoma)	TGI (UO-31 renal)	TGI (CCRF-CEM leukemia)	TGI (NCI/ADR-RES ovarian)	TGI (HCT-15 colon)	TGI (786-0 renal)	TGI (OVCAR-3 ovarian)	TGI (SNB-19 CNS)	TGI (HT29 colon)	TGI (SR leukemia)
Cc1[nH]n(C(=O)Cc2ccccc2)c(=O)c1/C=C1\C(=O)C=Cc2ccccc21	> 100 µM	79.9 µM	93.4 µM		> 100 µM	> 100 µM	> 100 µM	> 100 µM	> 100 µM	> 100 µM
CCCCCCCCCCCCOC(=N)N1CCOCC1	25.3 µM	26.8 µM	9.44 µM		16.3 µM	28.4 µM	30.3 µM	35.5 µM	4.11 µM	4.53 µM
COCc1nc(C#N)c(N)o1	> 10 µM	> 10 µM	> 10 µM	> 10 µM	> 10 µM	> 10 µM		> 10 µM	> 10 µM	> 10 µM
CC1=C(C(N)=O)C(c2ccncc2)C(C#N)C(=O)N1 (configuration not stated)	> 100 µM	> 100 µM	> 100 µM		> 100 µM	> 100 µM		> 100 µM		> 100 µM
CN(C)CCC(C#N)(c1ccccc1)c1ccccc1	58.4 µM	> 100 µM		> 100 µM	> 100 µM	> 100 µM	> 100 µM	> 100 µM	> 100 µM	
C/C(=C/C(=O)N(C)c1ccccc1Cl)O[Si](C(C)C)(C(C)C)C(C)C	> 100 µM	39.3 µM		39.6 µM	37.1 µM	33.1 µM	33.5 µM	64.5 µM	34 µM	
CCOC(=O)c1nc2ccccc2nc1Oc1ccc(F)cc1	> 100 µM	> 100 µM	> 100 µM	> 100 µM	> 100 µM	> 100 µM	> 100 µM	> 100 µM	> 100 µM	
CC(C)c1cc(C(C)C)c(S(=O)(=O)N/N=C2\CC3CCC2(C)C3(C)C)c(C(C)C)c1 (configuration not stated)	> 100 µM	> 100 µM	22.8 µM	> 100 µM	> 100 µM	> 100 µM	> 100 µM	> 100 µM	43.8 µM	
CSc1cnc2ccccc2c1Sc1cn(C)c2ccccc2c1=O	> 100 µM	> 100 µM	> 100 µM		> 100 µM	> 100 µM	95.5 µM	83.3 µM	> 100 µM	> 100 µM
O=c1[nH]nc(Nc2ccc(Cl)cc2)c2nnn(-c3ccc([N+](=O)[O-])cc3)c12			61.7 µM	> 100 µM	> 100 µM	35.5 µM		> 100 µM	> 100 µM	> 100 µM
CN1CN(c2ccccc2)C2(CCN(CCCN(C)c3ccc(F)cc3)CC2)C1=O	37.9 µM	40.3 µM	62.1 µM	51.3 µM	50.1 µM	42.2 µM	31.7 µM	56.5 µM	22.6 µM	
NC(C(=O)O)C(O)c1cnc[nH]1 (configuration not stated)	> 100 µM		> 100 µM	> 100 µM	> 100 µM	> 100 µM	> 100 µM	> 100 µM	> 100 µM	> 100 µM
N#CC(NNC(=O)c1ccccc1O)c1ccccc1O (configuration not stated)	> 100 µM	48.4 µM	> 100 µM		> 100 µM	> 100 µM	> 100 µM		> 100 µM	> 100 µM
COc1cc(N(CCC#N)CCC#N)ccc1/C(N=Nc1cccc([N+](=O)[O-])c1)=N\NC(=O)c1ccc(C)cc1	> 100 µM	> 100 µM	99.2 µM	> 100 µM	> 100 µM	> 100 µM	> 100 µM	> 100 µM	> 100 µM	
O=C1C/C(=C\c2ccccc2)C(=O)c2ccccc2N1	55.8 µM		49.8 µM	54.7 µM	44.7 µM	34.5 µM	50.5 µM	30.7 µM	36.5 µM	99.5 µM
CC(=O)C1=C(C)N2C(=NC3=C(CCc4ccccc43)C2c2ccc(Cl)cc2)S1 (configuration not stated)	> 100 µM	> 100 µM	> 96.6 µM	> 100 µM	> 100 µM	> 100 µM	> 100 µM	> 100 µM	> 100 µM	
FC(F)(F)c1ccc2c(c1)nc(Cc1ccc(Cl)cc1)n2CC1CCCN2CCCCC12 (configuration not stated)	6.38 µM	0.0985 µM		20.8 µM	20.9 µM	20.7 µM	15.2 µM	26.9 µM	11.6 µM	7.13 µM
COc1ccc(N(c2ccc(C#N)cc2)c2ccc(C#N)cc2)cc1	> 100 µM	> 100 µM	> 100 µM		> 100 µM	> 100 µM	> 100 µM	> 100 µM	> 100 µM	
